Common to all, as to test: NCI tumour cell line growth inhibition, 48 h
The test system of experiment [1] is A498 renal.
Experiment [2] concerns HCC-2998 colon.
Experiment [3] concerns K-562 leukemia.
Experiment [4] deals with OVCAR-3 ovarian.
Experiment [5] relates to OVCAR-5 ovarian.
Experiment [6] deals with OVCAR-8 ovarian.
The test system of experiment [7] is SF-268 CNS.
Experiment [8] has as its system SF-295 CNS.
Experiment [9] has as its system SW-620 colon.
In experiment [10] the test system is TK-10 renal.
The subject of experiment [11] is MDA-MB-231 breast.
For experiment [12], the system named is MDA-MB-435.
Experiment [13] concerns NCI/ADR-RES ovarian.
The test system of experiment [14] is MCF7 breast.

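48-hour exposure; five concentrations; linearly interpolated endpoints. TGI: total growth inhibition.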 Where only a bound is given, the exact number is not on record here.

In the case of `CCCOP(=S)(N1CC1)N1CC1`, the TGI in experiment [1], in experiment [2], in experiment [3], in experiment [4], in experiment [5] and in experiment [6] was over 100 µM in each case. Besides, the TGI in experiment [7], in experiment [8], in experiment [9] and in experiment [10] was over 100 µM throughout.
In the case of `CC1=C(C)C(=O)C(C2=C(C3=CC(=O)C(C)=C(C)C3=O)C(=O)c3ccccc3C2=O)=CC1=O`, the TGI in [1] was 18.4 µM; in [2] it was 16.3 µM; in experiment [3], 19.7 µM; in [11] it was 6.23 µM; in experiment [12], 3.05 µM; in experiment [13], 36.7 µM. Moreover, the TGI in [4] came to 15.8 µM; in experiment [5] it was 32.2 µM; in experiment [6] it was 8.07 µM; in experiment [7], 17.5 µM; in experiment [8], 27.9 µM; in experiment [9] it was 4.99 µM. The compound also showed a TGI in experiment [10] of 15.9 µM.
Regarding `O=C1c2c(ccc3c2CCCC3)CC1Cc1ccc2c(c1)CCCC2` (stereo unspecified), the TGI in experiment [1], in experiment [2], in [3], in experiment [14], in experiment [11] and in experiment [12] was over 100 µM in each case. In addition, the TGI in experiment [4], in experiment [5], in [6], in experiment [7], in experiment [8] and in experiment [9] was over 100 µM in each case. This compound also returned a TGI in [10] of over 100 µM.
Consider `COc1ccccc1Cn1[nH]c(=O)c2cc([N+](=O)[O-])ccc21`, for which the TGI in [1], in [2], in experiment [3], in experiment [11], in experiment [12] and in [13] was over 100 µM throughout. Besides, the TGI is 83 µM in experiment [4]; over 100 µM in [5]; over 100 µM in [6]; over 100 µM in experiment [7]; over 100 µM in experiment [9]; over 100 µM in experiment [10].
As to `CN(C)Cc1[nH]c2ccccc2c1C(=O)c1ccccc1`, the TGI in experiment [2], in experiment [3], in experiment [4], in experiment [5], in experiment [6] and in experiment [7] was over 100 µM each time. The TGI in [8], in experiment [9] and in experiment [10] was over 100 µM in each case.
`c1ccc(CSC(SCc2ccccc2)c2ccc3c(c2)OCO3)cc1`: the TGI in [1], in [2], in [3], in experiment [14], in [11] and in [13] was over 10 µM throughout. Also, the TGI in experiment [4], in experiment [6], in experiment [7], in experiment [8], in [9] and in experiment [10] was over 10 µM throughout.
As to `Cc1ccccc1NC(=O)CSc1nnc(Cc2ccccc2)o1`, the TGI in [2], in experiment [3], in [4], in [5], in experiment [6] and in experiment [7] was over 100 µM each time. For the same compound, the TGI in experiment [8] and in experiment [10] was over 100 µM in each case.
As for `Cc1ccc(Nc2cn(COCc3ccccc3)c(=O)[nH]c2=O)cc1`, the TGI in experiment [1], in experiment [2], in experiment [3], in experiment [14], in experiment [12] and in experiment [13] was over 100 µM throughout. Also, the TGI in [4], in experiment [5], in experiment [7], in experiment [8] and in experiment [9] was over 100 µM in each case.
Regarding `CC(=O)C1=NN(c2ccccc2)C2(S1)SC(c1ccccc1)(c1ccccc1)c1ccccc12` (stereo unspecified), the TGI in [1], in [2], in experiment [3], in experiment [4], in experiment [6] and in [7] was over 100 µM in each case. Further, the TGI in [8], in [9] and in experiment [10] was over 100 µM each time.
As to `c1cc(C[S+]2CCCC2)oc1C[S+]1CCCC1`, the TGI in [1], in experiment [2], in [3], in experiment [11], in experiment [12] and in experiment [13] was over 100 µM each time. The TGI in experiment [4], in experiment [6], in experiment [7], in experiment [8], in experiment [9] and in experiment [10] was over 100 µM in each case.
Regarding `COc1ccc(C2C(Cl)C(=O)N2NC(=O)c2ccccc2O)cc1OC` (stereo unspecified), the TGI in experiment [1], in [3], in experiment [4], in [6], in experiment [7] and in experiment [8] was over 100 µM each time. In [10], this compound yielded a TGI of over 100 µM.
For the compound `O=C1c2ccccc2C(=O)c2c(O)c(NCCNCCO)cc(O)c21`, the TGI worked out at 21 µM in [1]; 13.7 µM in experiment [2]; 10.4 µM in [3]; 15.1 µM in [4]; 21.8 µM in [5]; 12.6 µM in [6]. The TGI was found to be 15.5 µM in experiment [7], 22.2 µM in [8], 12 µM in [9] and 17.7 µM in experiment [10].
